In patent US20060035897A1, “Trifluoromethyl substituted benzamides as kinase inhibitors” (priority 2004, published 2006):

Compound	melting point [°C]
Cc1ccc(NC(=O)c2cccc(C(F)(F)F)c2)cc1-c1ccc2ccncc2c1 [Example 1, N-(3-Isoquinolin-7-yl-4-methyl-phenyl)-3-trifluoromethyl-benzamide]	148 to 152
Cc1ccc(C(=O)Nc2cccc(C(F)(F)F)c2)cc1-c1ccc2ccncc2c1 [Example 3, 3-Isoquinolin-7-yl-4-methyl-N-(3-trifluoromethyl-phenyl)-benzamide]	157 to 159
Cc1ccc(NC(=O)c2cccc(C(F)(F)F)c2)cc1-c1ccc2ncsc2c1 [Example 5, N-(3-Benzothiazol-6-yl-4-methyl-phenyl)-3-trifluoromethyl-benzamide]	94 to 96
Cc1ccc(C(=O)Nc2cccc(C(F)(F)F)c2)cc1-c1ccc2ncsc2c1 [Example 6, 3-Benzothiazol-6-yl-4-methyl-N-(3-trifluoromethyl-phenyl)-benzamide]	102 to 104
Cc1ccc(NC(=O)c2cccc(C(F)(F)F)c2)cc1-c1ccc2cnncc2c1 [Example 7, N-(4-Methyl-3-phthalazin-6-yl-phenyl)-3-trifluoromethyl-benzamide]	205 to 206
Cc1ccc(C(=O)Nc2cccc(C(F)(F)F)c2)cc1-c1ccc2cnncc2c1 [Example 8, 4-Methyl-3-phthalazin-6-yl-N-(3-trifluoromethyl-phenyl)-benzamide]	270 to 272
Cc1ccc(NC(=O)c2cccc(C(F)(F)F)c2)cc1-c1ccc2scnc2c1 [Example 9, N-(3-Benzothiazol-5-yl-4-methyl-phenyl)-3-trifluoromethyl-benzamide]	90 to 93
Cc1ccc(C(=O)Nc2cccc(C(F)(F)F)c2)cc1-c1ccc2scnc2c1 [Example 10, 3-Benzothiazol-5-yl-4-methyl-N-(3-trifluoromethylphenyl)benzamide]	200 to 202
Cc1ccc(NC(=O)c2ccc(CN3CCN(C)CC3)c(C(F)(F)F)c2)cc1-c1ccc2cnncc2c1 [Example 15, N-(4-Methyl-3-phthalazin-6-yl-phenyl)-4-(4-methyl-piperazin-1-ylmethyl)-3-trifluoromethyl-benzamide]	204 to 208
Cc1ccc(NC(=O)c2ccc(CN3CCCCC3)c(C(F)(F)F)c2)cc1-c1ccc2cnncc2c1 [Example 17, N-(4-Methyl-3-phthalazin-6-yl-phenyl)-4-piperidin-1-ylmethyl-3-trifluoromethyl-benzamide]	175 to 177
Cc1ccc(NC(=O)c2ccc(CN(C)C)c(C(F)(F)F)c2)cc1-c1ccc2cnncc2c1 [Example 19, 4-Dimethylaminomethyl-N-(4-methyl-3-phthalazin-6-yl-phenyl)-3-trifluoromethyl-benzamide]	240 to 241

Further lines, results first:

melting point [°C]	Compound
236 to 238	Cc1ccc(NC(=O)c2ccc(CN3CCOCC3)c(C(F)(F)F)c2)cc1-c1ccc2cnncc2c1 [Example 20, N-(4-Methyl-3-phthalazin-6-yl-phenyl)-4-morpholin-4-ylmethyl-3-trifluoromethyl-benzamide]
247 to 249	Cc1ccc(C(=O)Nc2ccc(CN3CCCCC3)c(C(F)(F)F)c2)cc1-c1ccc2cnncc2c1 [Example 22, 4-Methyl-3-phthalazin-6-yl-N-(4-piperidin-1-ylmethyl-3-trifluoromethyl-phenyl)-benzamide]
284 to 287	Cc1ccc(C(=O)Nc2ccc(CN3CCOCC3)c(C(F)(F)F)c2)cc1-c1ccc2cnncc2c1 [Example 23, 4-Methyl-N-(4-morpholin-4-ylmethyl-3-trifluoromethyl-phenyl)-3-phthalazin-6-yl-benzamide]
251 to 254	Cc1ccc(C(=O)Nc2ccc(CN(C)C)c(C(F)(F)F)c2)cc1-c1ccc2cnncc2c1 [Example 24, N-(4-Dimethylaminomethyl-3-trifluoromethyl-Phenyl)-4-methyl-3-phthalazin-6-yl-benzamide]
246 to 250	Cc1ccc(C(=O)Nc2ccc(CN3CCCC3)c(C(F)(F)F)c2)cc1-c1ccc2cnncc2c1 [Example 25, 4-Methyl-3-phthalazin-6-yl-N-(4-pyrrolidin-1-ylmethyl-3-trifluoromethyl-phenyl)-benzamide]
